Data as given in the supplement of paper PMC10307832.

These cell lines were tested with C1=CC2=NC=CN=C2C=C1/C=C/3\C(=O)NC(=O)S3 + Nc1nc2[nH]cc(CCc3ccc(C(=O)N[C@@H](CCC(=O)O)C(=O)O)cc3)c2c(=O)[nH]1 [Pemetrexed] (partner 0.2 µM) (assay: relative viability (nuclei count vs DMSO), 5 days (fraction); higher = more cells survive). Details: first compound 0.02 µM.
Summary of the method: (§1)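 Relative viability equals treated-well nuclei counts divided by vehicle-well nuclei counts. Counts came from 4× images of lung cancer cell lines grown in 1536-well plates for 5 days after pin-tool dosing on the day after seeding. Dosing used one drug alone or a fixed anchor-drug dose plus five library-drug doses (not always all listed) in √10 steps, and values are medians of duplicate plates.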
For CAL-12T, the relative viability was 1.03.
Cell Line NCI-H1651 has a relative viability of 0.53.
With EPLC-272H the relative viability was 0.351.
Work on NCI-H2228 yielded a relative viability of 0.358.
In the case of NCI-H1355, the relative viability is reported as 0.944.
For NCI-H3122, the relative viability was 0.224.
NCI-H1437 was tested, and the relative viability was 0.345.
For NCI-H1755, the relative viability was 0.394.
NCI-H2023 showed a relative viability of 0.251.
With HCC-15 the relative viability was 0.231.
With PC-14 the relative viability was 0.138.
In the case of EKVX, the relative viability is reported as 0.337.
Work on LC-2-ad yielded a relative viability of 0.292.
With NCI-H1975 the relative viability was 0.266.
RERF-LC-KJ showed a relative viability of 0.525.
Cell Line NCI-H650 has a relative viability of 1.03.
PC-3 [JPC-3] gave a relative viability of 1.19.

Same assay, conditions: first compound 0.06325 µM
CAL-12T showed a relative viability of 1.31.
Cell Line NCI-H1651 has a relative viability of 0.474.
With EPLC-272H the relative viability was 0.266.
NCI-H2228 was tested, and the relative viability was 0.34.
With NCI-H1355 the relative viability was 1.07.
NCI-H3122 showed a relative viability of 0.216.
NCI-H1437 showed a relative viability of 0.291.
For NCI-H1755, the relative viability was 0.404.
NCI-H2023 gave a relative viability of 0.269.
For HCC-15, the relative viability was 0.217.
With PC-14 the relative viability was 0.148.
Work on EKVX yielded a relative viability of 0.356.
For LC-2-ad, the relative viability was 0.286.
NCI-H1975 gave a relative viability of 0.297.
For RERF-LC-KJ, the relative viability was 0.501.
In the case of NCI-H650, the relative viability is reported as 0.996.
PC-3 [JPC-3] was tested, and the relative viability was 1.17.

Same assay, conditions: first compound 0.2 µM
CAL-12T gave a relative viability of 1.34.
NCI-H1651 showed a relative viability of 0.582.
In the case of EPLC-272H, the relative viability is reported as 0.43.
In the case of NCI-H2228, the relative viability is reported as 0.332.
NCI-H1355 gave a relative viability of 1.1.
Work on NCI-H3122 yielded a relative viability of 0.205.
Work on NCI-H1437 yielded a relative viability of 0.293.
Cell Line NCI-H1755 has a relative viability of 0.465.
For NCI-H2023, the relative viability was 0.24.
HCC-15 showed a relative viability of 0.234.
PC-14 gave a relative viability of 0.156.
For EKVX, the relative viability was 0.363.
LC-2-ad was tested, and the relative viability was 0.276.
Work on NCI-H1975 yielded a relative viability of 0.299.
Work on RERF-LC-KJ yielded a relative viability of 0.465.
Cell Line NCI-H650 has a relative viability of 1.02.
Cell Line PC-3 [JPC-3] has a relative viability of 1.2.

Same assay, conditions: first compound 0.6325 µM
CAL-12T gave a relative viability of 1.09.
Cell Line NCI-H1651 has a relative viability of 0.589.
For EPLC-272H, the relative viability was 0.353.
For NCI-H2228, the relative viability was 0.293.
NCI-H1355 was tested, and the relative viability was 1.
NCI-H3122 gave a relative viability of 0.2.
For NCI-H1437, the relative viability was 0.289.
Work on NCI-H1755 yielded a relative viability of 0.428.
NCI-H2023 was tested, and the relative viability was 0.214.
Cell Line HCC-15 has a relative viability of 0.231.
Work on PC-14 yielded a relative viability of 0.131.
EKVX showed a relative viability of 0.438.
LC-2-ad showed a relative viability of 0.283.
Work on NCI-H1975 yielded a relative viability of 0.288.
RERF-LC-KJ was tested, and the relative viability was 0.489.
NCI-H650 was tested, and the relative viability was 0.864.
Cell Line PC-3 [JPC-3] has a relative viability of 1.19.

Same assay, conditions: first compound 2 µM
CAL-12T gave a relative viability of 1.28.
Cell Line NCI-H1651 has a relative viability of 0.518.
EPLC-272H gave a relative viability of 0.318.
With NCI-H2228 the relative viability was 0.321.
NCI-H1355 was tested, and the relative viability was 0.939.
NCI-H3122 was tested, and the relative viability was 0.195.
With NCI-H1437 the relative viability was 0.265.
Work on NCI-H1755 yielded a relative viability of 0.444.
For NCI-H2023, the relative viability was 0.182.
Cell Line HCC-15 has a relative viability of 0.218.
In the case of PC-14, the relative viability is reported as 0.145.
Cell Line EKVX has a relative viability of 0.364.
Cell Line LC-2-ad has a relative viability of 0.279.
NCI-H1975 was tested, and the relative viability was 0.294.
Work on RERF-LC-KJ yielded a relative viability of 0.455.
For NCI-H650, the relative viability was 0.659.
PC-3 [JPC-3] gave a relative viability of 1.23.

These cell lines were tested with CCN1CCN(c2ccc(Nc3cc(N(C)C(=O)Nc4c(Cl)c(OC)cc(OC)c4Cl)ncn3)cc2)CC1 [BGJ398] + CC(C)C[C@H](NC(=O)[C@H](Cc1ccccc1)NC(=O)c1cnccn1)B(O)O [Bortezomib] (partner 0.002 µM) in the same assay as above. Details: first compound 0.01 µM.
Summary of the method: as §1
With CAL-12T the relative viability was 0.954.
With NCI-H1651 the relative viability was 0.909.
In the case of EPLC-272H, the relative viability is reported as 0.96.
In the case of NCI-H2228, the relative viability is reported as 1.34.
Cell Line NCI-H1355 has a relative viability of 1.05.
NCI-H3122 showed a relative viability of 1.04.
NCI-H1437 was tested, and the relative viability was 0.521.
NCI-H1755 gave a relative viability of 1.
NCI-H2023 was tested, and the relative viability was 0.966.
Cell Line HCC-15 has a relative viability of 1.01.
Cell Line PC-14 has a relative viability of 0.952.
EKVX showed a relative viability of 0.993.
Work on LC-2-ad yielded a relative viability of 0.968.
With NCI-H1975 the relative viability was 0.431.
Work on RERF-LC-KJ yielded a relative viability of 1.06.
Work on NCI-H650 yielded a relative viability of 0.777.
PC-3 [JPC-3] showed a relative viability of 0.851.

Same assay, conditions: first compound 0.03162 µM
For CAL-12T, the relative viability was 0.852.
NCI-H1651 was tested, and the relative viability was 0.932.
EPLC-272H was tested, and the relative viability was 0.816.
In the case of NCI-H2228, the relative viability is reported as 1.08.
With NCI-H1355 the relative viability was 1.27.
For NCI-H3122, the relative viability was 0.998.
Work on NCI-H1437 yielded a relative viability of 0.56.
NCI-H1755 showed a relative viability of 0.872.
Cell Line NCI-H2023 has a relative viability of 1.07.
HCC-15 was tested, and the relative viability was 0.997.
Work on PC-14 yielded a relative viability of 0.85.
EKVX gave a relative viability of 1.06.
LC-2-ad gave a relative viability of 1.12.
In the case of NCI-H1975, the relative viability is reported as 0.405.
With RERF-LC-KJ the relative viability was 1.17.
NCI-H650 showed a relative viability of 0.909.

Same assay, conditions: first compound 0.1 µM
Work on CAL-12T yielded a relative viability of 0.996.
With NCI-H1651 the relative viability was 1.05.
For EPLC-272H, the relative viability was 0.957.
For NCI-H2228, the relative viability was 0.782.
In the case of NCI-H1355, the relative viability is reported as 1.2.
With NCI-H3122 the relative viability was 1.
NCI-H1437 was tested, and the relative viability was 0.412.
NCI-H1755 gave a relative viability of 0.975.
In the case of NCI-H2023, the relative viability is reported as 0.978.
In the case of HCC-15, the relative viability is reported as 1.04.
In the case of PC-14, the relative viability is reported as 0.791.
EKVX was tested, and the relative viability was 1.27.
Cell Line LC-2-ad has a relative viability of 1.07.
With NCI-H1975 the relative viability was 0.404.
In the case of RERF-LC-KJ, the relative viability is reported as 1.2.
Work on NCI-H650 yielded a relative viability of 0.845.
PC-3 [JPC-3] gave a relative viability of 0.914.

Same assay, conditions: first compound 0.3162 µM
Cell Line CAL-12T has a relative viability of 0.943.
Work on NCI-H1651 yielded a relative viability of 1.
In the case of EPLC-272H, the relative viability is reported as 0.841.
NCI-H2228 showed a relative viability of 0.942.
NCI-H1355 gave a relative viability of 1.15.
Work on NCI-H3122 yielded a relative viability of 1.02.
NCI-H1437 gave a relative viability of 0.536.
NCI-H1755 showed a relative viability of 0.921.
NCI-H2023 was tested, and the relative viability was 0.883.
Work on HCC-15 yielded a relative viability of 1.08.
In the case of PC-14, the relative viability is reported as 0.868.
Cell Line EKVX has a relative viability of 0.959.
In the case of LC-2-ad, the relative viability is reported as 1.01.
NCI-H1975 was tested, and the relative viability was 0.384.
Work on RERF-LC-KJ yielded a relative viability of 1.31.
NCI-H650 showed a relative viability of 0.837.
PC-3 [JPC-3] showed a relative viability of 0.804.

Same assay, conditions: first compound 1 µM
Work on CAL-12T yielded a relative viability of 0.837.
For NCI-H1651, the relative viability was 0.911.
Work on EPLC-272H yielded a relative viability of 0.861.
With NCI-H2228 the relative viability was 0.925.
Work on NCI-H1355 yielded a relative viability of 0.603.
In the case of NCI-H3122, the relative viability is reported as 1.09.
NCI-H1437 gave a relative viability of 0.462.
In the case of NCI-H1755, the relative viability is reported as 0.875.
For NCI-H2023, the relative viability was 1.12.
For HCC-15, the relative viability was 1.06.
Work on PC-14 yielded a relative viability of 0.878.
Work on EKVX yielded a relative viability of 1.07.
For LC-2-ad, the relative viability was 1.09.
NCI-H1975 was tested, and the relative viability was 0.319.
